ChEMBL document CHEMBL3638734, “5-HT3 receptor modulators, methods of making, and use thereof” (2013)

Target: T1, 5-hydroxytryptamine receptor 3A (Homo sapiens, UniProt P46098)
T1 sequence (P46098 whole entry): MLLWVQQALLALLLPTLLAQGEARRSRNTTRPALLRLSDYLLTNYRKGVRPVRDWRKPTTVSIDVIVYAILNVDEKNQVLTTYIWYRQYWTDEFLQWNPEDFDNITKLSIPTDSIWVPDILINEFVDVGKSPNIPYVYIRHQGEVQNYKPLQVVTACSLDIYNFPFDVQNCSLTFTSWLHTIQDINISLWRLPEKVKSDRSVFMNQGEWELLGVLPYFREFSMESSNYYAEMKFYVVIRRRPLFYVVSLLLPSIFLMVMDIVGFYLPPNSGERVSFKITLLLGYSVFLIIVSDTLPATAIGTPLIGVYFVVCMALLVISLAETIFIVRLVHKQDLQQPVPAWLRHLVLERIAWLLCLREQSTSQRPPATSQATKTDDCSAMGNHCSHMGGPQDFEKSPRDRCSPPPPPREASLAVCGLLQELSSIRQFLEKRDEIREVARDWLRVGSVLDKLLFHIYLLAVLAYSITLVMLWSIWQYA
Assay: Radioligand Binding Assay: The relative affinity of the various compounds for the human 5-HT3 receptor was measured in a radioligand binding assay, using a scintillation proximity assay (SPA) format.

| SMILES | Ki |
| --- | --- |
| Cn1nc2c3c(cccc31)C(=O)N([C@@H]1CN3CCC1CC3)CC2 | 2 nM |
| O=C1c2cccc3[nH]nc(c23)CCN1[C@@H]1CN2CCC1CC2 | 4 nM |
| CCn1nc2c3c(cccc31)C(=O)N([C@@H]1CN3CCC1CC3)CC2 | 1 nM |
| CC(C)n1nc2c3c(cccc31)C(=O)N([C@@H]1CN3CCC1CC3)CC2 | 2 nM |
| O=C1c2cccc3c2c(nn3Cc2ccccc2)CCN1[C@@H]1CN2CCC1CC2 | 2 nM |
| O=C1c2cccc3[nH]nc(c23)CCN1[C@H]1CN2CCC1CC2 | 108 nM |
| O=C1c2cccc3c2c(cn3S(=O)(=O)c2ccccc2)CCN1[C@@H]1CN2CCC1CC2 | 25 nM |
